According to ChEMBL document CHEMBL1201862, “PubChem BioAssay data set” (2004):
Calls of active or inactive are those of the source.

Assays:
Protein RecA = biological target: T1, Protein RecA (Mycobacterium tuberculosis, UniProt P9WHJ3); assay: Fluorescence Cell-Free Homogeneous Dose Retest to Identify Inhibitors of RecA-Intein Splicing Activity. [Related pubchem assays (depositor defined):AID2097, AID2223, AID489010, AID492950]; type: functional
T1 sequence (P9WHJ3 whole entry): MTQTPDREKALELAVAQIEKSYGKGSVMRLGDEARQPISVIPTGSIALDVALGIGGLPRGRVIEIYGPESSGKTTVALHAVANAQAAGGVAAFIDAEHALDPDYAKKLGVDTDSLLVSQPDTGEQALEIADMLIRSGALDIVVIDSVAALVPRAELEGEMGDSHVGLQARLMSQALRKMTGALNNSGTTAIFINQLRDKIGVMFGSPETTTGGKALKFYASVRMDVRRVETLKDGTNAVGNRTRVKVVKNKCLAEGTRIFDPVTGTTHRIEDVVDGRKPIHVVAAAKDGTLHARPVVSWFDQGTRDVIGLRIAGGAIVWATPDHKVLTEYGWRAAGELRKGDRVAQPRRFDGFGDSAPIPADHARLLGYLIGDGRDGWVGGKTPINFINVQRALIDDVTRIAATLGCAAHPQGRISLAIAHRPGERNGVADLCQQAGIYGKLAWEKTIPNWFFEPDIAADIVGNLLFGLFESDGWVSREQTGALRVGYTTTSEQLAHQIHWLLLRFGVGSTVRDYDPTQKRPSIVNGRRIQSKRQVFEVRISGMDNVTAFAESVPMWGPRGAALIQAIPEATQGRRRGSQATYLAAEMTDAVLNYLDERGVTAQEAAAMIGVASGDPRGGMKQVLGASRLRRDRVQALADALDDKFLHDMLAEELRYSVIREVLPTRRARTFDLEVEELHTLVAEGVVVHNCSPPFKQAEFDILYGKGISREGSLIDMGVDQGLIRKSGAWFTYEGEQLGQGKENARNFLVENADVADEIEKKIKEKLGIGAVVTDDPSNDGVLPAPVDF

[1] = biological target: T2, Apoptotic protease-activating factor 1 (Homo sapiens, UniProt O14727); type: functional
T2 sequence (O14727 whole entry): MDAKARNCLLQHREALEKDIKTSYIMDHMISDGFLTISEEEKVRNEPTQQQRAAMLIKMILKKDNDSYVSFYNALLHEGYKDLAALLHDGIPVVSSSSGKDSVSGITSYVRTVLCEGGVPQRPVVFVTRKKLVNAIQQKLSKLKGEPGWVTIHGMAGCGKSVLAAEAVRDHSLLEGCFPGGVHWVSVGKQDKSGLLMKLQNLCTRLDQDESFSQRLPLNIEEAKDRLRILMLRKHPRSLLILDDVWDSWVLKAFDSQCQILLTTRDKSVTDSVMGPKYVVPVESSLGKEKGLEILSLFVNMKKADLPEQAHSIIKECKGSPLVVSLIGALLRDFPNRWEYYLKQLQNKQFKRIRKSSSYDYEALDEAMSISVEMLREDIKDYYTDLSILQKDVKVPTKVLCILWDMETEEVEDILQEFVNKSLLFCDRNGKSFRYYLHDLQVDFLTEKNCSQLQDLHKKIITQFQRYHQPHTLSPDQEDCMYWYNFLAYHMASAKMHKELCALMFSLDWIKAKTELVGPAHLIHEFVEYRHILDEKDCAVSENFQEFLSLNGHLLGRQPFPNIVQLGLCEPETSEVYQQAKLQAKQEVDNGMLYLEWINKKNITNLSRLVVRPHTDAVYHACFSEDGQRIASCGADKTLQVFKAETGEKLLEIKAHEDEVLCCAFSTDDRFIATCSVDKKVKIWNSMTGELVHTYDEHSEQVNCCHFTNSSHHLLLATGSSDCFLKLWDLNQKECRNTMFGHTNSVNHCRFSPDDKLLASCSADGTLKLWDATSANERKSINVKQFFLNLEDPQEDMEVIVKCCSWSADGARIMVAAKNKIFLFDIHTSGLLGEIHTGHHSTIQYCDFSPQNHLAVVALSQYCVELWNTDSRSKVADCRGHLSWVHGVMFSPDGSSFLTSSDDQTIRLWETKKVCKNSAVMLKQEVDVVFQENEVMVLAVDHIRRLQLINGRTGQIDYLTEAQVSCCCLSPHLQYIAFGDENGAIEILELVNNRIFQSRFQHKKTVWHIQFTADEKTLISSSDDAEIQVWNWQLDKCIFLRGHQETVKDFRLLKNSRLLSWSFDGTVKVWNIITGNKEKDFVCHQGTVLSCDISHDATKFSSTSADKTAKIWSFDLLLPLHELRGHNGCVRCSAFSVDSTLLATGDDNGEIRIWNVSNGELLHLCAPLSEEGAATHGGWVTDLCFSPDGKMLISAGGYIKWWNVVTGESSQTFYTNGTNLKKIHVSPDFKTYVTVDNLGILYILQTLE

[2] = biological target: T3, Replicative DNA helicase DnaB (Mycobacterium tuberculosis, UniProt P9WMR3); assay: DnaB intein splicing inhibitors, dose response, biochemical, cell-free fluorescence (AID 449749); type: functional
T3 sequence (P9WMR3 whole entry): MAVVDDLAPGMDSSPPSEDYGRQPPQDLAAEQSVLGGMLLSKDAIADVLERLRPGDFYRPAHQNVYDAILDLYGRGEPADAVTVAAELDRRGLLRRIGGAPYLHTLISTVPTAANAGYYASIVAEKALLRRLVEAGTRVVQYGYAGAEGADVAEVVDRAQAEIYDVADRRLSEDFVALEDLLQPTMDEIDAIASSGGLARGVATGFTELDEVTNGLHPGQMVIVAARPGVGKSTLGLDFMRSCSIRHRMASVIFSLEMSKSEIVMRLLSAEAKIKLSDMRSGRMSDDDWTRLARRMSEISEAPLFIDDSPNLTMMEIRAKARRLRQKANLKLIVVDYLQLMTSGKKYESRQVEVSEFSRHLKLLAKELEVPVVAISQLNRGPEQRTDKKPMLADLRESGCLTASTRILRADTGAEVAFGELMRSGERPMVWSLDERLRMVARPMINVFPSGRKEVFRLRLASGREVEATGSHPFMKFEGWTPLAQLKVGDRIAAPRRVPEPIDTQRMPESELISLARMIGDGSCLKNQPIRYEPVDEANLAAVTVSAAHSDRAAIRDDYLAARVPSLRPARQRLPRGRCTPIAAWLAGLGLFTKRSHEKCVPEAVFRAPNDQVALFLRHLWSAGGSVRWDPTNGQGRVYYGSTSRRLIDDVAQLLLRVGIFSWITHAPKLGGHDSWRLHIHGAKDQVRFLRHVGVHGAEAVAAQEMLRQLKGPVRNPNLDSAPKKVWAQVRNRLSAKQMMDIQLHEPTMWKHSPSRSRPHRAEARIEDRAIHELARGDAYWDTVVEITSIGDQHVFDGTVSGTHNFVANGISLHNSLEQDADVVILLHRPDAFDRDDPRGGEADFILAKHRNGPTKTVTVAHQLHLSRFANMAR

[3] = biological target: Mothers against decapentaplegic homolog 3 (Homo sapiens, UniProt P84022); assay: inhibitors of SMAD-driven TGF-beta signaling – dose response (AID 715); type: functional
Beta-lactamase = Beta-lactamase (Pseudomonas aeruginosa, UniProt Q79MP6);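 also: biochemical dose-response test of metallo-beta-lactamase enzyme inhibition, read out by epi-absorbance; purified recombinant IMP-1 metallo-beta-lactamase with nitrocefin as substrate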
Sequence of Beta-lactamase (Q79MP6 whole entry): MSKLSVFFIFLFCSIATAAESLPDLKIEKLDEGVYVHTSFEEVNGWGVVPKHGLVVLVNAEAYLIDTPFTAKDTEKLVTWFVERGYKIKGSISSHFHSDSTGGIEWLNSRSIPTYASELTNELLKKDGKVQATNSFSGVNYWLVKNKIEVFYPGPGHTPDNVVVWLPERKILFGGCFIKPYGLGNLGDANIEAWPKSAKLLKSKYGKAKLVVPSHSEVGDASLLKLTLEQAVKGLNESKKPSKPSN

Sequence of Mothers against decapentaplegic homolog 3 (P84022 whole entry): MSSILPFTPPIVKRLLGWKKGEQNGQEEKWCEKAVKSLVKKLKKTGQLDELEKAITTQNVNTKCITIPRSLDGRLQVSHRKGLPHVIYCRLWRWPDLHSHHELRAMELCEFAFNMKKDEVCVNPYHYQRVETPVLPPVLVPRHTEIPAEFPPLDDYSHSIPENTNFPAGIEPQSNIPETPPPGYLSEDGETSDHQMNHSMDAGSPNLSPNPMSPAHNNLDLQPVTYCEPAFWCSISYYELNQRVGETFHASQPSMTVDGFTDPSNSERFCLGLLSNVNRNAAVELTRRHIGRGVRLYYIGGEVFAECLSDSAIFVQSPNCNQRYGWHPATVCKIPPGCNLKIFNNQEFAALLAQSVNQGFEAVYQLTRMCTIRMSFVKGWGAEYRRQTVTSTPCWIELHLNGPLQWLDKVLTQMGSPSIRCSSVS

Row | SMILES | EC50 (Protein RecA) | IC50 [1] | AC50 [2] | IC50 [3] | IC50 (Beta-lactamase)
1 | CCCCCCCCCCOC(=O)C[n+]1c(COc2ccccc2C)n(C)c2ccccc21 | 7.26 µM (active) | 8.53 µM (active) | 3.01 µM (active) |  | 
2 | Oc1nc(Nc2ccccc2)cc2ccccc12 | 1.9 µM (active) | 3.31 µM (active) | > 380 µM (inactive) | 19.6 µM (active) | 
3 | COc1cc(OC)c(-c2c3cc(O)c(=O)cc-3oc3cc(O)c(O)cc23)cc1OC |  |  |  |  | 5.62 µM (active)
